Values of other authors as cited in patent US20030175883A1, “DNA encoding a mammalian LPA receptor and uses thereof” (priority 1997, published 2003).

Columns and labels:
[1] = test system: LPA binding sites in membranes from 3T3 cells; conditions: Thomson et al., 1994
[2] = biological target: LPA binding sites in membranes from rat brain; conditions: Thomson et al., 1994

Kd [2]: low nanomolar range
Substance: 1-acyl-glycerol-3-phosphate [LPA]
Kd [1]: low nanomolar range
